Active and inactive are the calls of the source. The calls are words filed in the database; no cut-off is given here.
How the values were obtained:
[1] = tested on: DU-145; assay: Cytotoxicity against human DU145 cells after 72 hrs by MTS assay; type: functional, cell-based
[2] = tested on: OCI-AML2; assay: Cytotoxicity against human OCI-AML2 cells after 72 hrs by MTS assay; type: functional, cell-based
[3] = tested on: MDA-MB-468; assay: Cytotoxicity against human MDA-MB-468 cells after 72 hrs by MTS assay; type: functional, cell-based
[4] = target: Signal transducer and activator of transcription 3 (Homo sapiens) (UniProt P40763); assay: Displacement of FAM-GpYLPQTV-NH2 from full-length Stat3 SH2 domain (unknown origin) up to 400 uM by fluorescence polarization
Chain of Signal transducer and activator of transcription 3 (Homo sapiens) (P40763 whole entry, the tested form may be a part): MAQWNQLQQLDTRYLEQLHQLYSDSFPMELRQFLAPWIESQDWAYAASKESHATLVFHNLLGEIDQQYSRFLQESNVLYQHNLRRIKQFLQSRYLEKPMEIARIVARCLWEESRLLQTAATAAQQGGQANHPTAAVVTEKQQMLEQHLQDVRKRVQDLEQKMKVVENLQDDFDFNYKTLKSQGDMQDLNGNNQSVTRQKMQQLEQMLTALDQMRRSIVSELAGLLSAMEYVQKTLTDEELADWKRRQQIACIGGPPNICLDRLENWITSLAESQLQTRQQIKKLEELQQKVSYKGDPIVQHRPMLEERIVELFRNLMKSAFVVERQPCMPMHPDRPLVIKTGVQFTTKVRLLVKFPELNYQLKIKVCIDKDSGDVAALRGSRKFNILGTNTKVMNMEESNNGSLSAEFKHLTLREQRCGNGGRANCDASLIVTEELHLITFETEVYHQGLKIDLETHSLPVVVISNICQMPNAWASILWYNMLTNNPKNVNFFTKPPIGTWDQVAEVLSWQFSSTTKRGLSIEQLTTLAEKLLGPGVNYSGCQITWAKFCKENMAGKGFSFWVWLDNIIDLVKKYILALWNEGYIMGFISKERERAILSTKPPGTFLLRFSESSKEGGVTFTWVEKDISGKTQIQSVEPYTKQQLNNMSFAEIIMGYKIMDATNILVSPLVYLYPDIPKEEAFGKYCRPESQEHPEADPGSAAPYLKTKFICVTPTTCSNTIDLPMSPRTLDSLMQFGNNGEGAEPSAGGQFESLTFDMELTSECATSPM

[5] = Induction of apoptosis in human XG6 cells assessed as viable cells at 15 uM after 48 hrs by annexinV/propidium iodide staining (reference value: 83.3%); type: functional; conditions: XG6, 48 h, read-out: Activity
[6] = tested on: JJN-3; assay: Induction of apoptosis in human JJN-3 cells assessed as late apoptotic cells at 15 uM after 48 hrs by annexinV/propidium iodide staining (reference value: 9.59%); type: functional
[7] = tested on: JJN-3; assay: Induction of apoptosis in human JJN-3 cells assessed as viable cells at 15 uM after 48 hrs by annexinV/propidium iodide staining (reference value: 75.9%); type: functional; conditions: JJN-3, 48 h, read-out: Activity
[8] = Induction of apoptosis in human XG6 cells assessed as early apoptotic cells at 15 uM after 48 hrs by annexinV/propidium iodide staining (reference value: 8.62%); type: functional
[9] = tested on: JJN-3; assay: Induction of apoptosis in human JJN-3 cells assessed as early apoptotic cells at 15 uM after 48 hrs by annexinV/propidium iodide staining (reference value: 13.3%); type: functional
[10] = Induction of apoptosis in human XG6 cells assessed as late apoptotic cells at 15 uM after 48 hrs by annexinV/propidium iodide staining (reference value: 7.78%); type: functional

In the case of `NS(=O)(=O)OCCn1cnc2c(N3CCOCC3)nc(NCc3ccc(C4CCCCC4)cc3)nc21`, the Activity [1] is reported as “inactive”, the Activity [2] is reported as “inactive” and the Activity [3] is reported as “inactive”.

With `O=C(Nc1nc(N2CCOCC2)c2ncn(CCc3nnn[nH]3)c2n1)C1CCCCC1` the Activity [1] was “inactive”, the Activity [2] was “inactive” and the Activity [3] was “inactive”.

In the case of `CC(C)CCNc1nc(NCc2ccc(C3CCCCC3)cc2)nc2c1ncn2CCOS(N)(=O)=O`, the Activity [1] is reported as “inactive”, the Activity [2] is reported as “inactive” and the Activity [3] is reported as “inactive”.

For `CC(=O)OCOC(=O)Cn1cnc2c(NCC(C)C)nc(NCc3ccc(C4CCCCC4)cc3)nc21`, the Activity [1] was “inactive”, the Activity [2] was “inactive” and the Activity [3] was “inactive”.

In the case of `c1cc(C2CCCCC2)ccc1CNc1nc(NC2CCCC2)c2ncn(CCc3nnn[nH]3)c2n1`, the Activity [1] is reported as “inactive”, the Activity [2] is reported as “inactive” and the Activity [3] is reported as “inactive”.

For `CC(C)CNc1nc(NCc2ccc(C3CCCCC3)cc2)nc2c1ncn2CC(=O)OCOC(=O)C(C)(C)C`, the Activity [1] was “inactive”, the Activity [2] was “inactive” and the Activity [3] was “inactive”.

In the case of `CC(C)CNc1nc(NCc2ccc(C3CCCCC3)cc2)nc2c1ncn2CCc1nnn[nH]1`, the Activity [1] is reported as “inactive”, the Activity [2] is reported as “inactive” and the Activity [3] is reported as “inactive”.

With `CCOC(=O)Cn1cnc2c(NCC(C)C)nc(NCc3ccc(C4CCCCC4)cc3)nc21` the Activity [1] was “inactive”, the Activity [2] was “inactive” and the Activity [3] was “inactive”.

In the case of `CCOC(=O)Cn1cnc2c(NCc3ccco3)nc(NCc3ccc(C4CCCCC4)cc3)nc21`, the Activity [1] is reported as “inactive”, the Activity [2] is reported as “inactive” and the Activity [3] is reported as “inactive”.

With `CC(C)(C)C(=O)OCOC(=O)Cn1cnc2c(N3CCOCC3)nc(NCc3ccc(C4CCCCC4)cc3)nc21` the Activity [1] was “inactive”, the Activity [2] was “inactive” and the Activity [3] was “inactive”.

With `CC(C)CCNc1nc(NCc2ccc(C3CCCCC3)cc2)nc2c1ncn2CCc1nnn[nH]1` the Activity [1] was “inactive”, the Activity [2] was “inactive” and the Activity [3] was “inactive”.

In the case of `CCOC(=O)Cn1cnc2c(NCCC(C)C)nc(NCc3ccc(C4CCCCC4)cc3)nc21`, the Activity [1] is reported as “inactive”, the Activity [2] is reported as “inactive” and the Activity [3] is reported as “inactive”.

In the case of `CCOC(=O)Cn1cnc2c(N3CCOCC3)nc(NC(=O)C3CCCCC3)nc21`, the Activity [1] is reported as “inactive”, the Activity [2] is reported as “inactive” and the Activity [3] is reported as “inactive”.

With `CC(=O)OCOC(=O)Cn1cnc2c(Oc3ccc([N+](=O)[O-])cc3)nc(NCc3ccc(C4CCCCC4)cc3)nc21` the Activity [1] was “inactive”, the Activity [2] was “inactive” and the Activity [3] was “inactive”.

With `CC(=O)OCOC(=O)Cn1cnc2c(NCCC(C)C)nc(NCc3ccc(C4CCCCC4)cc3)nc21` the Activity [1] was “inactive”, the Activity [2] was “inactive” and the Activity [3] was “inactive”.

In the case of `O=[N+]([O-])c1ccc(Oc2nc(NCc3ccc(C4CCCCC4)cc3)nc3c2ncn3CCc2nnn[nH]2)cc1`, the Activity [1] is reported as “inactive”, the Activity [2] is reported as “inactive” and the Activity [3] is reported as “inactive”.

In the case of `NS(=O)(=O)OCCn1cnc2c(N3CCOCC3)nc(NC(=O)C3CCCCC3)nc21`, the Activity [1] is reported as “inactive”, the Activity [2] is reported as “inactive” and the Activity [3] is reported as “inactive”. For the same compound, the inhibition [4] was “inactive”.

For `CC(C)(C)C(=O)OCOC(=O)Cn1cnc2c(Nc3ccc(F)cc3)nc(NCc3ccc(C4CCCCC4)cc3)nc21`, the Activity [1] was “inactive”, the Activity [2] was “inactive” and the Activity [3] was “inactive”. For the same compound, the inhibition [4] was “inactive”.

With `NS(=O)(=O)OCCn1cnc2c(Oc3ccc([N+](=O)[O-])cc3)nc(NCc3ccc(C4CCCCC4)cc3)nc21` the Activity [1] was “inactive”, the Activity [2] was “inactive” and the Activity [3] was “inactive”.

With `CCOC(=O)Cn1cnc2c(Oc3ccc([N+](=O)[O-])cc3)nc(NCc3ccc(C4CCCCC4)cc3)nc21` the Activity [1] was “inactive”, the Activity [2] was “inactive” and the Activity [3] was “inactive”.

In the case of `CCOC(=O)Cn1cnc2c(Nc3ccc(F)cc3)nc(NCc3ccc(C4CCCCC4)cc3)nc21`, the Activity [1] is reported as “inactive”, the Activity [2] is reported as “inactive” and the Activity [3] is reported as “inactive”. The inhibition [4] was “inactive”.

For `CC(C)CNc1nc(NCc2ccc(C3CCCCC3)cc2)nc2c1ncn2CCOS(N)(=O)=O`, the Activity [1] was “inactive”, the Activity [2] was “inactive” and the Activity [3] was “inactive”.

In the case of `CCOC(=O)Cn1cnc2c(N3CCOCC3)nc(NCc3ccc(C4CCCCC4)cc3)nc21`, the Activity [1] is reported as “inactive”, the Activity [2] is reported as “inactive” and the Activity [3] is reported as “inactive”.

In the case of `NS(=O)(=O)OCCn1cnc2c(NCc3ccco3)nc(NCc3ccc(C4CCCCC4)cc3)nc21`, the Activity [1] is reported as “inactive”, the Activity [2] is reported as “inactive” and the Activity [3] is reported as “inactive”.

In the case of `CC(=O)OCOC(=O)Cn1cnc2c(N3CCOCC3)nc(NCc3ccc(C4CCCCC4)cc3)nc21`, the Activity [1] is reported as “inactive”, the Activity [2] is reported as “inactive” and the Activity [3] is reported as “inactive”.

With `CC(=O)OCOC(=O)Cn1cnc2c(NCc3ccco3)nc(NCc3ccc(C4CCCCC4)cc3)nc21` the Activity [1] was “inactive”, the Activity [2] was “inactive” and the Activity [3] was “inactive”.

In the case of `N[C@@H](Cc1ccc(N(CCCl)CCCl)cc1)C(=O)O` [MELPHALAN], the viability at 15 µM [5] is reported as 30.8%, the Activity [6] is reported as 23.7% and the viability at 15 µM [7] is reported as 54.5%. It also gave an Activity [8] of 34%, an Activity [9] of 19.3% and an Activity [10] of 34.8%.

In the case of `CCOC(=O)Cn1cnc2c(NC3CCCC3)nc(NCc3ccc(C4CCCCC4)cc3)nc21`, the Activity [1] is reported as “inactive”, the Activity [2] is reported as “inactive” and the Activity [3] is reported as “inactive”.

For `CC(C)(C)C(=O)OCOC(=O)Cn1cnc2c(NCc3ccco3)nc(NCc3ccc(C4CCCCC4)cc3)nc21`, the Activity [1] was “inactive”, the Activity [2] was “inactive” and the Activity [3] was “inactive”.

For `c1coc(CNc2nc(NCc3ccc(C4CCCCC4)cc3)nc3c2ncn3CCc2nnn[nH]2)c1`, the Activity [1] was “inactive”, the Activity [2] was “inactive” and the Activity [3] was “inactive”. For the same compound, the inhibition [4] was “inactive”.

For `NS(=O)(=O)OCCn1cnc2c(NC3CCCC3)nc(NCc3ccc(C4CCCCC4)cc3)nc21`, the Activity [1] was “inactive”, the Activity [2] was “inactive” and the Activity [3] was “inactive”.

With `CC(=O)OCOC(=O)Cn1cnc2c(Nc3ccc(F)cc3)nc(NCc3ccc(C4CCCCC4)cc3)nc21` the Activity [1] was “inactive”, the Activity [2] was “inactive” and the Activity [3] was “inactive”. For the same compound, the inhibition [4] was “inactive”.

With `c1cc(C2CCCCC2)ccc1CNc1nc(N2CCOCC2)c2ncn(CCc3nnn[nH]3)c2n1` the Activity [1] was “inactive”, the Activity [2] was “inactive” and the Activity [3] was “inactive”.

In the case of `CC(=O)OCOC(=O)Cn1cnc2c(N3CCOCC3)nc(NC(=O)C3CCCCC3)nc21`, the Activity [1] is reported as “inactive”, the Activity [2] is reported as “inactive” and the Activity [3] is reported as “inactive”.

In the case of `CC(C)CCNc1nc(NCc2ccc(C3CCCCC3)cc2)nc2c1ncn2CC(=O)OCOC(=O)C(C)(C)C`, the Activity [1] is reported as “inactive”, the Activity [2] is reported as “inactive” and the Activity [3] is reported as “inactive”.

With `CC(C)(C)C(=O)OCOC(=O)Cn1cnc2c(NC3CCCC3)nc(NCc3ccc(C4CCCCC4)cc3)nc21` the Activity [1] was “inactive”, the Activity [2] was “inactive” and the Activity [3] was “inactive”.

With `CC(C)(C)C(=O)OCOC(=O)Cn1cnc2c(Oc3ccc([N+](=O)[O-])cc3)nc(NCc3ccc(C4CCCCC4)cc3)nc21` the Activity [1] was “inactive”, the Activity [2] was “inactive” and the Activity [3] was “inactive”.

With `Fc1ccc(Nc2nc(NCc3ccc(C4CCCCC4)cc3)nc3c2ncn3CCc2nnn[nH]2)cc1` the Activity [1] was “inactive”, the Activity [2] was “inactive” and the Activity [3] was “inactive”. For the same compound, the inhibition [4] was “inactive”.

With `CC(=O)OCOC(=O)Cn1cnc2c(NC3CCCC3)nc(NCc3ccc(C4CCCCC4)cc3)nc21` the Activity [1] was “inactive”, the Activity [2] was “inactive” and the Activity [3] was “inactive”.

In the case of `CC(C)(C)C(=O)OCOC(=O)Cn1cnc2c(N3CCOCC3)nc(NC(=O)C3CCCCC3)nc21`, the Activity [1] is reported as “inactive”, the Activity [2] is reported as “inactive” and the Activity [3] is reported as “inactive”.

From ChEMBL document CHEMBL3124828, “A 2,6,9-hetero-trisubstituted purine inhibitor exhibits potent biological effects against multiple myeloma cells” (Bioorg Med Chem, 2013)
